Source: US20180117036A1, “ORAL PHARMACEUTICAL COMPOSITION FOR INCREASING HYPOXIA TOLERANCE” (CHANGZHOU HI-TECH DISTRICT MULTIPLE DIMENSION INDU, priority 2013, published 2018)
Where a name gives a salt, the structure may show the parent alone.

System: hypoxic mice
Assay: Survival time of mice under normal pressure in hypoxic condition (sealed wide mouth bottle with soda lime)
Format: in vivo
Settings: intragastric; for Extended Survival Time: 7 days, vs control group; for Survival Time: once a day for 7 days, n = 10, x ± S
Protocol: Observation of influence of oral administration of different dosage combination of L-carnitine+trimetazidine to hypoxic mice in normal pressure trimetazidine hydrochloride: 0.15, 0.75, 1.5, 3, 6 and 9 mg/kg, equivalent to human daily dosage of 1, 5, 10, 20, 40 and 60 mg;
L-carnitine: 600 mg/kg, equivalent to human daily dosage of 4 g; 70 male mice are selected, each of a weight of 20±2 g. The mice are divided into […] randomly based on weight, 10 for each group, and are given oral administration at a dosage of 20 ml/kg, while the control group is given isovolumetric normal saline, both once a day for consecutive 7 days. In one hour after the final administration, each group of mice are placed in wide mouth bottles of a volume of 160 ml, into which 5 g of soda lime has been pre-added. One bottle contains one mouse and its cap is sealed with Vaseline. Taking death of mice as index, putting down the survival time of mice and taking a 20% or more extension of survival time as significant effect. Please refer to table 1 for the results.
Comparison of L-carnitine 600 mg/kg+trimetazidine hydrochloride 6 mg/kg and separate intragastric administration on mice in hypoxia under atmospheric pressure 40 male mice are selected, each of a weight of 20±2 g. The mice are divided into 4 groups randomly based on weight, 10 for each group, and are given intragastric administration at a dosage of 20 ml/kg, while the control group is given isovolumetric normal saline, both once a day for consecutive 7 days. In one hour after the final administration, each group of mice are placed in wide mouth bottles of a volume of 160 ml, into which 5 g of soda lime has been pre-added. One bottle contains one mouse and its cap is sealed with Vaseline. Taking death of mice as index and putting down the survival time of mice. Please refer to table 2 for the results.

[1] = trimetazidine hydrochloride 6 mg/kg alone

## COc1ccc(CN2CCNCC2)c(OC)c1OC [trimetazidine hydrochloride]
[1]
  Extended Survival Time: 20.9%
  Survival Time: 26.0 ± 5.2 min

## C[N+](C)(C)C[C@H](O)CC(=O)[O-] [L-carnitine]
L-carnitine 600 mg/kg alone
  Extended Survival Time: 33.0%
  Survival Time: 28.6 ± 4.8 min
